The source of these data is patent US12208071B2, “Glucagon receptor antagonists” (LIGAND PHARMACEUTICALS INCORPORATED, priority 2018, dated 2025).

A short description of data set [1]: Aqueous solubility, 24 hours at 25° C., HPLC. It counts as physicochemical. Conditions: for solubility at 24 h: 25 °C, thermodynamic from solid; for solubility at 24 h / Solubility: 24 hours at 25° C., n = 2. The protocol: The testing media: Water, pH 4.0, 6.8, 7.4, 10.0 USP buffers (50 mM), 0.1N HCl, 0.01N HCl, SGF, FaSSIF, FeSSIF.
About 10 mg of Polymorph Form A was weighed and added to a 1.5 mL vial, and then 1.0 mL of aqueous media was added into the vial. The vial was shaken for 24 hours at 25° C. After equilibration for 24 hours, the mixture was centrifuged at 14000 rpm for 10 mins. The concentration of supernatant was checked by HPLC and the residuals were checked by XRPD. The final pH of supernatant was recorded. Experiments were conducted in duplicate.

The nature of data set [2]: pKa measurement (Sirius T3, pH-metric and UV-metric). Conditions: pH-metric (MeOH, DMSO, Dioxane co-solvent) and UV-metric (DMSO) methods, pH 1.0 to pH 11.0. Format: physicochemical. The protocol: There are two methods available on the Sirius T3 for pKa measurement: potentiometric titration and spectroscopic (UV) titration.
Potentiometric Titration Method is a method which works for any ionicable compound and its standard working range is pH 3.0 to pH 11.0. […] Where this cannot be achieved, the use of organic co-solvents to enhance the solubility is employed.
Its available pH range is typically between 0.5 and 13.5. A compound concentration of 50 μM is typically used, i.e., ten fold lower than the pH-metric method. Co-solvent determination may also be performed when the assayed compounds remain insoluble under all other conditions.
When co-solvent solutions had been employed by pH-metric method or UV-metric method, the psKa values are extrapolated to zero percent organic content using the Yasuda-Shedlovsky extrapolation procedure, which yields extrapolated aqueous pKa values and slope information which can be used to ascertain the acidic/basic characteristics of the ionisable groups.
About 1 mg of Polymorph Form A was weighed into a sample vial, about 1.5 mL of co-solvent (60v % DMSO, 80v % MeOH or 60v % Dioxane) was added into the vial manually, then titrated with acid or base to obtain a psKa value with co-solvent and water, and extrapolated to get aqueous pKa value. Tables 7-9 below and FIGS. 7A-9B provide the results of pKa determination by pH metric method. […]

“Also recorded” adds a separate entry of the source. Some results are limits rather than exact numbers.

Turning to `Cc1cc(C)c(-c2ccc(NC(=O)[C@H](Cc3ccc(C(=O)NCCS(=O)(=O)[O-])cc3)c3ccc(-c4ccc(C(C)(C)C)cc4)cc3)cc2)c(C)c1.[Na+]` [Polymorph Form A, Sodium (R)-2-(4-(2-(4′-(tert-butyl)-[1,1′-biphenyl]-4-yl)-3-oxo-3-((2′,4′,6′-trimethyl-[1,1′-biphenyl]-4-yl)amino)propyl)benzamido)ethane-1-sulfonate], the “Form (XRPD of residual after solubility test)” value in data set [1] (0.01N HCl), in data set [1] (0.1N HCl), in data set [1] (FaSSIF), in data set [1] (FeSSIF), in data set [1] (SGF) and in data set [1] (pH 4.0 buffer) was “Form A” throughout. The “Form (XRPD of residual after solubility test)” value in data set [1] (pH 6.8 buffer), in data set [1] (pH 7.4 buffer), in data set [1] (pH 10.0 buffer) and in data set [1] (water) was “Form A” throughout. In addition, the solubility (commonly the concentration that dissolves in the medium under given conditions) at 24 h is under 100 µg/mL in data set [1] (0.01N HCl, pH 2.24, simulated gastric fluid, initial pH 1.97, final pH 2.24); under 100 µg/mL in data set [1] (0.1N HCl, pH 1.08, simulated gastric fluid, initial pH 1.02, final pH 1.08); under 100 µg/mL in data set [1] (pH 4.0 USP buffer (50 mM), pH 4, aqueous buffer, pH 4.0 buffer, initial pH 4.05, final pH 4.13); under 100 µg/mL in data set [1] (pH 6.8 USP buffer (50 mM), pH 6.8, aqueous buffer, pH 6.8 buffer, initial pH 6.84, final pH 6.87); under 100 µg/mL in data set [1] (pH 7.4 USP buffer (50 mM), pH 7.4, aqueous buffer, pH 7.4 buffer, initial pH 7.43, final pH 7.46). The Solubility (commonly the dissolved amount per volume that the medium holds) was 70 ± 0 µg/mL in data set [1] (0.01N HCl, initial pH 1.97, final pH 2.24); 60 ± 0 µg/mL in data set [1] (0.1N HCl, initial pH 1.02, final pH 1.08); 50 ± 10 µg/mL in data set [1] (pH 4.0 buffer, initial pH 4.05, final pH 4.13); 50 ± 0 µg/mL in data set [1] (pH 6.8 buffer, initial pH 6.84, final pH 6.87); 60 ± 10 µg/mL in data set [1] (pH 7.4 buffer, initial pH 7.43, final pH 7.46). The “XRPD after solubility test (overall)” value in data set [1] (all aqueous media) is on record as “no new forms were found; also recorded: no change”. In data set [2], the pKa entry is “could not be detected”.
